Tested on: BOIVE: whitehead broom (Borerria verticillata)
Test: Postemergence herbicidal activity of mixtures in the field, visual weed control
Type: in vivo
Conditions: postemergence field trial
Experimental: Field trials were conducted in Brazil in pasture area cultivated with Brachiaria brizantha using standard herbicide small-plot research methodology. The plot size used was 3 meters (m)×8 m (width×length) with 4 replicates per treatment. The pasture was grown using normal cultural practices for fertilization, management, and maintenance to ensure good growth of the crop and the weeds. […] All treatment results, both for the single product and mixtures, are an average of 3 to 4 replicates and the tank-mix interactions are significant at the […] level. Colby's equation was used to determine the herbicidal effects expected from the mixtures (Colby, S. R. Calculation of the synergistic and antagonistic response of herbicide combinations. […] However, the experiments described herein were performed such that active ingredients B and C were combined and only the efficacy of the combination was determined. As such, Colby's equation simplifies to Expected=A+Z−(AZ/100) A=observed efficacy of active ingredient A (flumioxazin) at the same concentration as used in the mixture; […] All comparisons are an average of 3 to 4 replicates and are significant at the […] level.

C#CCN1C(=O)COc2cc(F)c(N3C(=O)C4=C(CCCC4)C3=O)cc21 [Flumioxazin, 2-[7-fluoro-3,4-dihydro-3-oxo-4-(2-propyn-1-yl)-2H-1,4-benzoxazin-6-yl]-4,5,6,7-tetrahydro-1H-isoindole-1,3(2H)-dione]
% Visual Control BOIVE (281 DAA) Obs (Flumioxazin 25 g ai/ha alone): 0% | % Visual Control BOIVE (281 DAA) Obs (Flumioxazin 50 g ai/ha alone): 0% | % Visual Control BOIVE (281 DAA) Obs (Flumioxazin 75 g ai/ha alone): 4% | % Visual Control BOIVE (281 DAA) Obs (Flumioxazin 100 g ai/ha alone): 13% | % Visual Control BOIVE (281 DAA) Obs (Flumioxazin 125 g ai/ha alone): 14%

Source: patent US20150173364A1, “HERBICIDAL COMPOSITIONS CONTAINING FLUMIOXAZIN, AMINOPYRALID AND FLUROXYPYR OR 2,4-D” (Dow AgroSciences LLC, priority 2013, published 2015)
